Results from patent publication US20230000996A1, “RAPAFUCIN DERIVATIVE COMPOUNDS AND METHODS OF USE THEREOF” (The Johns Hopkins University, priority 2019, published 2023).

Tests used:
A549 = experiment: Cell proliferation assay (Prolif.), IC50 scored relative to DMSO control; format: cell-based; details: A549 cells; for Rel. Prolif., A549: scored low/medium/high; for Prolif, A549: IC50 class relative to DMSO control
Description: Cell Proliferation Assay (Prolif.) Guo et al. (2018) Nat. Chem. 11:254-63. Specific cell lines are indicated in each assay and cultured in complete growth media. Activity is scored according to the IC50 values relative to DMSO control. “Low” indicates an IC50 greater than 600 nM, “Medium” indicates an IC50 between 300 nM and 600 nM “High” indicates an IC50 less than 300 nM. “Rel.Uptake” refers to uptake activity characterization relative to a single concentration assay. “Low” indicates a response greater than 0.6 times the activity relative to DMSO, “Medium” indicates a response between 0.6 and 0.3 times the activity relative to DMSO, “High” indicates a response less than 0.3 times the activity relative to DMSO.

[1] = Nucleoside uptake, single concentration assay (Rel.Uptake); cell line indicated in each table; format: cell-based; details: nucleoside uptake, single concentration assay, 293T cells, response relative to DMSO
Description: Nucleoside Uptake Assay (uptake). Nuceloside uptake assays were performed with using 3H-Thymidine as described in Guo et al. (2018) Nat. Chem. 11:254-63. Specific cell lines are indicated in each assay and cultured in complete growth media. Activity is scored according to the IC50 values relative to DMSO control. “Low” indicates an IC50 greater than 600 nM, “Medium” indicates an IC50 between 300 nM and 600 nM “High” indicates an IC50 less than 300 nM. “Rel.Uptake” refers to uptake activity characterization relative to a single concentration assay. “Low” indicates a response greater than 0.6 times the activity relative to DMSO, “Medium” indicates a response between 0.6 and 0.3 times the activity relative to DMSO, “High” indicates a response less than 0.3 times the activity relative to DMSO.

[2] = proliferation response relative to DMSO control

Row | SMILES | Prolif, A549 (A549) | Rel. Prolif., A549 (A549; [2]) | Rel. Uptake, 293T [1] | other results
1 | C=CC(=O)OCC(C)(C)C(=O)C(=O)N1CCCC[C@H]1C(=O)O[C@H](CCc1ccc(OC)c(OC)c1)c1cncc(NC(=O)CCC(=O)OC(C)(C)C)n1 [Compound 13] | – | – | – | Rel. Prolif., A549 (A549; proliferation response relative to DMSO, single concentration): low
2 | CCCC[C@H]1C(=O)N[C@@H](Cc2ccc3ccccc3c2)C(=O)N(C)[C@@H](COC(C)(C)C)C(=O)NCC(=O)N(C)CCC=CC(=O)OCC(C)(C)C(=O)C(=O)N2CCCC[C@H]2C(=O)O[C@H](CCc2cc(OC)c(OC)c(OC)c2)c2cccc(c2)OCC(=O)N1C [Compound 560] | me- dium | medium | – | –
3 | CCCC[C@H]1C(=O)N[C@@H](Cc2ccc3ccccc3c2)C(=O)N(C)[C@@H](COC(C)(C)C)C(=O)NCC(=O)N(C)CCC=CC(=O)OCC(C)(C)C(=O)C(=O)N2CCCC[C@H]2C(=O)O[C@H](CCc2ccc(OC)c(OC)c2OC)c2cccc(c2)OCC(=O)N1C [Compound 561] | me- dium | medium | – | –
4 | CCCC[C@H]1C(=O)N[C@@H](Cc2ccc3ccccc3c2)C(=O)N(C)[C@@H](COC(C)(C)C)C(=O)NCC(=O)N(C)CCC=CC(=O)OCC(C)(C)C(=O)C(=O)N2CCCC[C@H]2C(=O)O[C@H](CCc2cc(OC)c(OC)cc2OC)c2cccc(c2)OCC(=O)N1C [Compound 562] | me- dium | medium | – | –
5 | CCCC[C@H]1C(=O)N[C@@H](Cc2ccc3ccccc3c2)C(=O)N(C)[C@@H](COC(C)(C)C)C(=O)NCC(=O)N(C)CCC=CC(=O)OCC(C)(C)C(=O)C(=O)N2CCCC[C@H]2C(=O)O[C@H](CCc2cc(OC)cc(OC)c2OC)c2cccc(c2)OCC(=O)N1C [Compound 563] | – | low | – | –
6 | CCCC[C@H]1C(=O)N[C@@H](Cc2ccc3ccccc3c2)C(=O)N(C)[C@@H](COC(C)(C)C)C(=O)NCC(=O)N(C)CCC=CC(=O)OCC(C)(C)C(=O)C(=O)N2CCCC[C@H]2C(=O)O[C@H](CCc2c(OC)ccc(OC)c2OC)c2cccc(c2)OCC(=O)N1C [Compound 564] | – | low | – | –
7 | CCCC[C@H]1C(=O)N[C@@H](Cc2ccc3ccccc3c2)C(=O)N(C)[C@@H](COC(C)(C)C)C(=O)NCC(=O)N(C)CCC=CC(=O)OCC(C)(C)C(=O)C(=O)N2CCCC[C@H]2C(=O)O[C@H](CCc2ccc(OC)c(OC)c2O)c2cccc(c2)OCC(=O)N1C [Compound 565] | me- dium | medium | – | –
8 | CCCC[C@H]1C(=O)N[C@@H](Cc2ccc3ccccc3c2)C(=O)N(C)[C@@H](COC(C)(C)C)C(=O)NCC(=O)N(C)CCC=CC(=O)OCC(C)(C)C(=O)C(=O)N2CCCC[C@H]2C(=O)O[C@H](CCc2cc(O)c(OC)c(OC)c2)c2cccc(c2)OCC(=O)N1C [Compound 566] | me- dium | medium | – | –
9 | CCCC[C@H]1C(=O)N[C@@H](Cc2ccc3ccccc3c2)C(=O)N(C)[C@@H](COC(C)(C)C)C(=O)NCC(=O)N(C)CCC=CC(=O)OCC(C)(C)C(=O)C(=O)N2CCCC[C@H]2C(=O)O[C@H](CCc2cc(OC)c(OC)cc2O)c2cccc(c2)OCC(=O)N1C [Compound 567] | me- dium | medium | – | –
10 | CCCC[C@H]1C(=O)N[C@@H](Cc2ccc3ccccc3c2)C(=O)N(C)[C@@H](COC(C)(C)C)C(=O)NCC(=O)N(C)CCC=CC(=O)OCC(C)(C)C(=O)C(=O)N2CCCC[C@H]2C(=O)O[C@H](CCc2cc(F)c(OC)c(OC)c2)c2cccc(c2)OCC(=O)N1C [Compound 568] | me- dium | medium | – | –
11 | CCCC[C@H]1C(=O)N[C@@H](Cc2ccc3ccccc3c2)C(=O)N(C)[C@@H](COC(C)(C)C)C(=O)NCC(=O)N(C)CCC=CC(=O)OCC(C)(C)C(=O)C(=O)N2CCCC[C@H]2C(=O)O[C@H](CCc2cc(OC)c(OC)cc2F)c2cccc(c2)OCC(=O)N1C [Compound 569] | me- dium | medium | – | –
12 | CCCC[C@H]1C(=O)N[C@@H](Cc2ccc3ccccc3c2)C(=O)N(C)[C@@H](COC(C)(C)C)C(=O)NCC(=O)N(C)CCC=CC(=O)OCC(C)(C)C(=O)C(=O)N2CCCC[C@H]2C(=O)O[C@H](CCc2ccc(OC)c(OC)c2F)c2cccc(c2)OCC(=O)N1C [Compound 570] | me- dium | medium | – | –
13 | CCCC[C@H]1C(=O)N[C@@H](Cc2ccc3ccccc3c2)C(=O)N(C)[C@@H](COC(C)(C)C)C(=O)NCC(=O)N(C)CCC=CC(=O)OCC(C)(C)C(=O)C(=O)N2CCN(C(=O)OCC3c4ccccc4-c4ccccc43)C[C@H]2C(=O)O[C@H](CCc2ccc(OC)c(OC)c2)c2cccc(c2)OCC(=O)N1C [Compound 571] | – | low | – | –
14 | COc1ccc(OC)c(OC)c1CC[C@H]1OC(=O)[C@@H]2CCCCN2C(=O)C(=O)C(C)(C)COC(=O)C=CCCN(C)C(=O)[C@@H](Cc2ccccc2)NC(=O)CN(C)C(=O)[C@@H](Cc2ccccc2)NC(=O)[C@H](Cc2ccc(O)cc2)N(C)C(=O)COc2cccc1c2 [Compound 1583] | – | – | low | –
15 | COc1ccc(CC[C@H]2OC(=O)[C@@H]3CCCCN3C(=O)C(=O)C(C)(C)COC(=O)C=CCCN(C)C(=O)[C@@H](Cc3ccccc3)NC(=O)CN(C)C(=O)[C@@H](Cc3ccccc3)NC(=O)[C@H](Cc3ccc(O)cc3)N(C)C(=O)COc3cccc2c3)c(O)c1OC [Compound 1584] | – | – | low | –
16 | COc1ccc(CC[C@H]2OC(=O)[C@@H]3CCCCN3C(=O)C(=O)C(C)(C)COC(=O)C=CCCN(C)C(=O)[C@H](CC(C)C)N(C)C(=O)[C@H]3CCCN3C(=O)[C@H](Cc3ccc(CNC(=O)c4ccccc4)cc3)NC(=O)[C@H](c3ccccc3)NC(=O)CCC(=O)Nc3cccc2c3)cc1OC [Compound 1585] | – | – | High (“High” indicates a response less than 0.3 times the activity relative to DMSO) | –
17 | COc1ccc(CC[C@H]2OC(=O)[C@@H]3CCCCN3C(=O)C(=O)C(C)(C)COC(=O)C=CCCN(C)C(=O)[C@H](CC(C)C)N(C)C(=O)[C@H]3CCCN3C(=O)[C@H](Cc3ccc(CNC(=O)Cc4ccccc4)cc3)NC(=O)[C@H](c3ccccc3)NC(=O)CCC(=O)Nc3cccc2c3)cc1OC [Compound 1586] | – | – | Med | –
18 | COc1ccc(CC[C@H]2OC(=O)[C@@H]3CCCCN3C(=O)C(=O)C(C)(C)COC(=O)C=CCCN(C)C(=O)[C@H](CC(C)C)N(C)C(=O)[C@H]3CCCN3C(=O)[C@H](Cc3ccc(CNC(=O)CN(C)C)cc3)NC(=O)[C@H](c3ccccc3)NC(=O)CCC(=O)Nc3cccc2c3)cc1OC [Compound 1587] | – | – | Low (“Low” indicates a response greater than 0.6 times the activity relative to DMSO) | –
19 | COc1ccc(CC[C@H]2OC(=O)[C@@H]3CCCCN3C(=O)C(=O)C(C)(C)COC(=O)C=CCCN(C)C(=O)[C@H](CC(C)C)N(C)C(=O)[C@H]3CCCN3C(=O)[C@H](Cc3cccc(NC(C)=O)c3)NC(=O)[C@H](c3ccccc3)NC(=O)CCC(=O)Nc3cccc2c3)cc1OC [Compound 1588] | – | – | High (“High” indicates a response less than 0.3 times the activity relative to DMSO) | –
20 | COc1ccc(CC[C@H]2OC(=O)[C@@H]3CCCCN3C(=O)C(=O)C(C)(C)COC(=O)C=CCCN(C)C(=O)[C@H](CC(C)C)N(C)C(=O)[C@H]3CCCN3C(=O)[C@H](Cc3ccc(NC(=O)Cc4cccnc4)cc3)NC(=O)[C@H](c3ccccc3)NC(=O)CCC(=O)Nc3cccc2c3)cc1OC [Compound 1589] | – | – | Low (“Low” indicates a response greater than 0.6 times the activity relative to DMSO) | –
21 | COc1ccc(CC[C@H]2OC(=O)[C@@H]3CCCCN3C(=O)C(=O)C(C)(C)COC(=O)C=CCCN(C)C(=O)[C@H](CC(C)C)N(C)C(=O)[C@H]3CCCN3C(=O)[C@H](Cc3ccc(CC(=O)NCc4ccccc4)cc3)NC(=O)[C@H](c3ccccc3)NC(=O)CCC(=O)Nc3cccc2c3)cc1OC [Compound 1590] | – | – | High (“High” indicates a response less than 0.3 times the activity relative to DMSO) | –
22 | CCCCCCNC(=O)Cc1ccc(C[C@@H]2NC(=O)[C@H](c3ccccc3)NC(=O)CCC(=O)Nc3cccc(c3)[C@@H](CCc3ccc(OC)c(OC)c3)OC(=O)[C@@H]3CCCCN3C(=O)C(=O)C(C)(C)COC(=O)C=CCCN(C)C(=O)[C@H](CC(C)C)N(C)C(=O)[C@H]3CCCN3C2=O)cc1 [Compound 1591] | – | – | Med | –
23 | C=C1NCC(=O)N(C)CC/C=C\C(=O)OCC(C)(C)C(=O)C(=O)N2CCCC[C@H]2C(=O)O[C@H](CCc2ccc(OC)c(OC)c2)c2cccc(c2)NC(=O)CCC(=O)N(C)[C@@H](CC(C)C)C(=O)N[C@H](Cc2ccccc2)C(=O)N(C)[C@H]1[C@@H](C)CC [Compound 1592] | – | – | Low (“Low” indicates a response greater than 0.6 times the activity relative to DMSO) | –
24 | COc1ccc(CC[C@H]2OC(=O)[C@@H]3CCCCN3C(=O)C(=O)C(C)(C)COC(=O)C=CCCN(C)C(=O)[C@@H]3CCCN3C(=O)[C@H](COC(C)(C)C)N(C)C(=O)[C@@H](c3ccccc3)NC(=O)[C@H](C)N(C)C(=O)COc3cc(F)cc2c3)cc1OC [Compound 1595] | – | – | Low (“Low” indicates a response greater than 0.6 times the activity relative to DMSO) | –
25 | COc1ccc(CC[C@H]2OC(=O)[C@@H]3CCCCN3C(=O)C(=O)C(C)(C)COC(=O)C=CCCN(C)C(=O)[C@@H]3CCCN3C(=O)[C@H](COC(C)(C)C)N(C)C(=O)[C@H](c3ccccc3)NC(=O)[C@H](C)N(C)C(=O)COc3cc(F)cc2c3)cc1OC [Compound 1596] | – | – | Low (“Low” indicates a response greater than 0.6 times the activity relative to DMSO) | –
